Structures can show the parent of a compound that is named as a salt. Where two headings read alike, the source gives them in different places. No end group written: not given here.

These results are taken from paper PMC8386128, “Evaluation of Short-Chain Antimicrobial Peptides With Combined Antimicrobial and Anti-inflammatory Bioactivities for the Treatment of Zoonotic Skin Pathogens From Canines” (Frontiers in Microbiology, 2021).

The test system of data set [1] is Staphylococcus cohnii MW767053.
The test system of data set [2] is Staphylococcus cohnii MW767053. As to conditions: in combination with Allomyrinasin; peptide constant at 1/4 × MIC, 1 × 10^5 CFU/ml, triplicate.
The subject of data set [3] is S. cohnii MW767053 biofilm. The settings on record: for MBIC: 24 h; for MBEC: 48 h.
Data set [4] relates to Staphylococcus sciuri MW767055.
Data set [5] relates to Staphylococcus haemolyticus MW767051.
Data set [6] deals with Trichophyton mentagrophytes MW766984. As to conditions: 24 h.
In data set [7] the test system is S. pseudintermedius MW767056. As to conditions: three replicates, two independent experiments.
For data set [8], the system named is Staphylococcus pseudintermedius MW767056. As to conditions: in combination with Allomyrinasin; peptide constant at 1/4 × MIC, 1 × 10^5 CFU/ml, triplicate.
Data set [9] relates to Proteus mirabilis MW767054. As to conditions: MW767054, 24 h.
Another data set has as its system S. cohnii MW767053. As to conditions: peptide incubated in 25% FBS in RPMI-1640, 37°C, 4 h, then MIC at 1 × 10^5 CFU/ml; three replicates, two independent experiments.
Data set [10] concerns M. canis MW768151 biofilm. The settings on record: for MBIC: 24 h; for MBEC: 48 h.
In data set [11] the test system is sheep and mouse erythrocytes. The data set is described as follows: Hemolysis assay. As to conditions: 4% erythrocyte suspension, 2 h, 37°C, absorption at 550 nm, triplicate.
Experimental: The hemolysis assay was carried out by inoculating mammalian erythrocytes obtained from fresh defibrinated sheep and mouse blood (Thermo Fisher Scientific, Waltham, MA, United States) with the peptides. Briefly, peptides were incubated at 37°C with a 4% erythrocyte suspension with a twofold serial dilution series of peptides ranging from 512 to 1 μg/ml for 2 h. PBS and 1% nonionic detergent Triton X-100^TM (Sigma-Aldrich, St. Louis, MO, United States) diluted in PBS served as negative and positive controls, respectively. Cytolysis was evaluated by the measurement of absorption using a microplate reader at 550 nm. Experiments were done in triplicate. The hemolysis is derived from the following calculation:
Haemolysis%=A-APBS/ATriton-APBS×100%.
A represents the absorbance of samples treated with peptide, while APBS and ATriton indicate the absorbance of the negative and positive controls, respectively.
For data set [12], the system named is S. pseudintermedius MW767056 biofilm. The settings on record: for MBIC: 24 h; for MBEC: 48 h.
The subject of data set [13] is Staphylococcus pseudintermedius clinical isolates. The settings on record: triplicate; for MBC/MFC: 10 μl plated on MH plate, no colonies; for MIC: broth microdilution, MHB, 1 × 10^5 CFU/ml, 24 h, 37°C. Background: Broth dilution looks for growth in wells or tubes with falling amounts of substance.
For data set [14], the system named is Microsporum gypseum MW766983. The settings on record: 24 h.
Data set [15] has as its system Staphylococcus simulans MW767052.
Data set [16] relates to S. pseudintermedius MW767056. Kind of data set: Bacteriolysis analysis (culture turbidity at 600 nm). The format is cell-based, Staphylococcus pseudintermedius. The settings on record: 4× MIC, after 2.5 h, MHB, triplicate.
Data set [17] relates to S. pseudintermedius MW767056. Kind of data set: Calcein leakage analysis (membrane permeabilization). The settings on record: 10× MIC, up to 1 h, triplicate, two independent experiments. The format is cell-based, Staphylococcus pseudintermedius.
In data set [18] the test system is Microsporum canis MW768151. As to conditions: peptide constant at 1/4 × MIC, 1 × 10^5 CFU/ml, triplicate.

A word on the MIC: it is the least concentration at which growth counts as inhibited. Read a low MIC as inhibition by little substance. As for GLTRLFSVIK [Andricin B], the MBC/MFC is 64 µg/mL in data set [1] (strain MW767053, MBC, 10 μl plated on MH plate, no colonies, triplicate); above 256 µg/mL in data set [4] (strain MW767055, MBC, 10 μl plated on MH plate, no colonies, triplicate); above 256 µg/mL in [5] (strain MW767051, MBC, 10 μl plated on MH plate, no colonies, triplicate); 1 µg/mL in [6]; above 256 µg/mL in [9]; 32 µg/mL in data set [13] (strain MW767046). Moreover, the MBC/MFC in data set [13] (strain MW767056) was 32 µg/mL; in data set [13] (strain MW793383) it was 32 µg/mL; in data set [13] (strain MW793384), 128 µg/mL; in data set [13] (strain MW793385), 64 µg/mL; in [13] (strain MW793386), 64 µg/mL; in [13] (strain MW793387), 128 µg/mL. The MBC/MFC in data set [13] (strain MW793388) stood at 64 µg/mL; in [13] (strain MW793389), 128 µg/mL; in data set [13] (strain MW793390), 128 µg/mL; in data set [13] (strain MW793391), 32 µg/mL; in [13] (strain MW793392) it was 64 µg/mL; in data set [14] it was 2 µg/mL. Further, in data set [15] (strain MW767052, MBC, 10 μl plated on MH plate, no colonies, triplicate), the MBC/MFC worked out at 256 µg/mL. Moreover, the FIC index in data set [2] amounted to 0.50; in [8] it was 0.3125. Further, the MBIC turned out to be 256 µg/mL in [3], 4 µg/mL in data set [10] and 128 µg/mL in [12]. Also, the MBEC in data set [3] was above 256 µg/mL; in [10], 16 µg/mL; in data set [12], 256 µg/mL. For the same compound, the MIC was above 256 µg/mL in data set [4] (strain MW767055, broth microdilution, MHB, 1 × 10^5 CFU/ml, 24 h, 37°C, triplicate); above 256 µg/mL in data set [5] (strain MW767051, broth microdilution, MHB, 1 × 10^5 CFU/ml, 24 h, 37°C, triplicate); 1 µg/mL in [6]; above 256 µg/mL in data set [9]; 32 µg/mL in data set [13] (strain MW767046); 32 µg/mL in data set [13] (strain MW767056). Further, the minimum inhibitory concentration (MIC) in [13] (strain MW793383) worked out at 32 µg/mL; in data set [13] (strain MW793384), 128 µg/mL; in data set [13] (strain MW793385), 64 µg/mL; in [13] (strain MW793386), 64 µg/mL; in data set [13] (strain MW793387), 128 µg/mL; in data set [13] (strain MW793388) it was 64 µg/mL. Further, the MIC in data set [13] (strain MW793389) came to 128 µg/mL; in data set [13] (strain MW793390) it was 128 µg/mL; in data set [13] (strain MW793391) it was 32 µg/mL; in data set [13] (strain MW793392), 64 µg/mL; in data set [14], 2 µg/mL; in data set [15] (strain MW767052, broth microdilution, MHB, 1 × 10^5 CFU/ml, 24 h, 37°C, triplicate) it was 256 µg/mL. In data set [7] (1 × 10^5 CFU/ml), the “MIC without serum treatment” value was 32 µg/mL. Besides, the “MIC after serum treatment” value in data set [7] (peptide incubated in 25% FBS in RPMI-1640, 37°C, 4 h, then MIC at 1 × 10^5 CFU/ml) was 64 µg/mL; in the data set with S. cohnii MW767053 it was 256 µg/mL. The “hemolytic activity at lower concentrations” value in data set [11] (1 to 64 μg/ml) is listed as “little or no obvious hemolytic activity”. In addition, the “hemolytic activity at high concentrations” value in data set [11] (>64 μg/ml) is on record as “slight hemolytic activity”.
For KWAVRIIRKFIKGFIS [Hs02], the MBC/MFC in [1] (24 h) is 32 µg/mL; in data set [4] (24 h), above 256 µg/mL; in data set [5] (24 h), 128 µg/mL; in [6], 1 µg/mL; in data set [9], 128 µg/mL; in data set [14], 0.5 µg/mL. Moreover, the MBC/MFC in data set [15] (24 h) is 64 µg/mL. For the same compound, the minimum inhibitory concentration (MIC) in [1] (24 h) was 32 µg/mL; in data set [4] (24 h) it was above 256 µg/mL; in data set [5] (24 h), 128 µg/mL; in [6], 1 µg/mL; in data set [9], 128 µg/mL; in data set [14], 0.5 µg/mL. In [15] (24 h), the MIC is 64 µg/mL.
As to VAEARQGSFSY [Pinipesin], the MBC/MFC in data set [1] (24 h) was above 256 µg/mL; in [4] (24 h), above 256 µg/mL; in [5] (24 h), above 256 µg/mL; in data set [6] it was 0.5 µg/mL; in data set [9] it was above 256 µg/mL; in data set [14] it was 2 µg/mL. The compound further yielded an MBC/MFC in [15] (24 h) of 128 µg/mL. The minimal inhibitory concentration (MIC) in data set [1] (24 h) was above 256 µg/mL; in data set [4] (24 h), above 256 µg/mL; in [5] (24 h) it was above 256 µg/mL; in data set [6], 0.5 µg/mL; in [9], above 256 µg/mL; in [14], 2 µg/mL. For the same compound, in data set [15] (24 h), the minimum inhibitory concentration (MIC) came to 128 µg/mL. Further, the MBIC is above 256 µg/mL in [3], 4 µg/mL in [10] and above 256 µg/mL in data set [12]. Moreover, the values for the MBEC in data set [3], in data set [10] and in data set [12] were above 256 µg/mL, 16 µg/mL and above 256 µg/mL, respectively.
AAVTRRILCWFA-NH2 [Allomyrinasin]: the MBC/MFC in [1] (24 h) is 32 µg/mL; in [4] (24 h) it was above 256 µg/mL; in [5] (24 h), above 256 µg/mL; in data set [6] it was 2 µg/mL; in data set [9] it was above 256 µg/mL; in data set [14], 0.5 µg/mL. The MBC/MFC in data set [15] (24 h) was 128 µg/mL. For the same compound, the MIC in data set [1] (24 h) is 32 µg/mL; in data set [4] (24 h) it was above 256 µg/mL; in data set [5] (24 h) it was above 256 µg/mL; in data set [6] it was 2 µg/mL; in [9], above 256 µg/mL; in data set [14], 0.5 µg/mL. In data set [15] (24 h), this compound gave a minimal inhibitory concentration (MIC) of 128 µg/mL. In addition, the MBIC in data set [3] was 128 µg/mL; in [10], 2 µg/mL; in [12], 32 µg/mL. The MBEC is 256 µg/mL in [3], 8 µg/mL in [10] and 128 µg/mL in data set [12].
Regarding “ITSISLCTPGCKTGALMGCNMKTATCHCSIHVSK [Nisin, well-known membrane-perturbing peptide, positive control]”, the “decrease in absorbance (turbidity, OD600)” value in data set [16] is recorded as above 60%. In data set [17], the “calcein leakage (decrease in fluorescence intensity)” value was “at least 95%”.
With GLLSGILGAGKKIVF [Nigrocin-HLM], the figures for the MBC/MFC in data set [9] and in [14] were 64 µg/mL and 1 µg/mL, respectively.
On to `CN(C/C=C/C#CC(C)(C)C)Cc1cccc2ccccc12` [Terbinafine, terbinafine hydrochloride], for which the results for the FIC index in data set [18] (in combination with Allomyrinasin) and in [18] (in combination with Andricin B) were 0.375 and 0.50, respectively.
